Source: publication PMC6328375 (Molecular pharmaceutics, 2017)
Several values for one entry are separate records, joined by “and”; a condition that tells them apart may be missing. Equal values may be shown once. Where a name gives a salt, the structure may show the parent alone.

Legend:
[1] = biological target: T1, OCT1 (Homo sapiens, UniProt O15245); experiment: Inhibition of [14C]-metformin uptake in HEK293 cells expressing OCT1; type: cell-based
T1 sequence (O15245 1-554): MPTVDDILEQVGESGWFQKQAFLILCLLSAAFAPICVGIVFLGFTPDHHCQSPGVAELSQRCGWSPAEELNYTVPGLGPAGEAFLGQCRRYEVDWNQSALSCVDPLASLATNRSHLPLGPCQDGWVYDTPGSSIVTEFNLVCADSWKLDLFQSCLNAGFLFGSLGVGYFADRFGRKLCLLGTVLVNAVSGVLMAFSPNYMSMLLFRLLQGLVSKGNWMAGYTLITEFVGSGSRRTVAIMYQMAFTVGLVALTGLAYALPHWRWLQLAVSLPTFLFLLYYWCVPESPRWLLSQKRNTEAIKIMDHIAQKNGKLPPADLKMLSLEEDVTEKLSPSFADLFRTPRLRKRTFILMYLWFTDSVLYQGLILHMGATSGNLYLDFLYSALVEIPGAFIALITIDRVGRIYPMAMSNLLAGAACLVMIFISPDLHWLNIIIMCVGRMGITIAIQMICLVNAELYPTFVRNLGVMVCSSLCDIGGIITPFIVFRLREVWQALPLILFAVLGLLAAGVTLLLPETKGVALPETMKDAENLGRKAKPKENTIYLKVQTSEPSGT

[2] = biological target: T2, OCT2 (Homo sapiens, UniProt O15244); experiment: Inhibition of [14C]-metformin uptake in HEK293 cells expressing OCT2; type: cell-based; details: for inhibition at 50 μM: human, HEK293 cells expressing OCT2
T2 sequence (O15244 1-555): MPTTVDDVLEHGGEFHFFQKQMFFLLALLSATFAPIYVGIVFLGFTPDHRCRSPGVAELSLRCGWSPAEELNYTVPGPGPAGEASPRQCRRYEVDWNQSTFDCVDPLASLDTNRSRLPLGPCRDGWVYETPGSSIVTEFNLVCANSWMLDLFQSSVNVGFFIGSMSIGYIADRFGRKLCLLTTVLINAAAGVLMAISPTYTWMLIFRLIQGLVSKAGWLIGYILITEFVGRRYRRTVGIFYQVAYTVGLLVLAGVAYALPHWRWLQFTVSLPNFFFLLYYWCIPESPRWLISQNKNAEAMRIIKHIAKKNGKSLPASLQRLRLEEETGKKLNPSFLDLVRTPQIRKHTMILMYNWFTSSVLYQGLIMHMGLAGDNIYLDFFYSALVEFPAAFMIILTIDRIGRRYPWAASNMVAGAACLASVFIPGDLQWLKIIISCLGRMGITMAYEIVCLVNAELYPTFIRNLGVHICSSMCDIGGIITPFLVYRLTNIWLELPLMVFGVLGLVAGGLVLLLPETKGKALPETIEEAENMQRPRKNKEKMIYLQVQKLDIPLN

[3] = biological target: T2, OCT2; experiment: Uptake in HEK293 cells overexpressing OCT2; type: in vitro ADME; details: for P, OCT2 / Vmax, OCT2 / P (non-saturable clearance parameter), OCT2 / Vmax (maximum uptake rate), OCT2 / Km: HEK293-OCT2, 0.1–1000 μM; for Vmax (maximum uptake rate), OCT2: estimate ± standard error (n = 6); for Km: read-out: Km (Michaelis-Menten constant), OCT2; for Time dependent uptake in HEK-OCT2 cells versus empty vector controls (HEK-P5): 5 μM MPP+ or 50 μM metformin, 1–30 min
[4] = biological target: T3, OCT3 (Homo sapiens, UniProt O75751); experiment: Uptake in HEK293 cells stably overexpressing OCT3; type: in vitro ADME; details: 100 μM
T3 sequence (O75751 1-556): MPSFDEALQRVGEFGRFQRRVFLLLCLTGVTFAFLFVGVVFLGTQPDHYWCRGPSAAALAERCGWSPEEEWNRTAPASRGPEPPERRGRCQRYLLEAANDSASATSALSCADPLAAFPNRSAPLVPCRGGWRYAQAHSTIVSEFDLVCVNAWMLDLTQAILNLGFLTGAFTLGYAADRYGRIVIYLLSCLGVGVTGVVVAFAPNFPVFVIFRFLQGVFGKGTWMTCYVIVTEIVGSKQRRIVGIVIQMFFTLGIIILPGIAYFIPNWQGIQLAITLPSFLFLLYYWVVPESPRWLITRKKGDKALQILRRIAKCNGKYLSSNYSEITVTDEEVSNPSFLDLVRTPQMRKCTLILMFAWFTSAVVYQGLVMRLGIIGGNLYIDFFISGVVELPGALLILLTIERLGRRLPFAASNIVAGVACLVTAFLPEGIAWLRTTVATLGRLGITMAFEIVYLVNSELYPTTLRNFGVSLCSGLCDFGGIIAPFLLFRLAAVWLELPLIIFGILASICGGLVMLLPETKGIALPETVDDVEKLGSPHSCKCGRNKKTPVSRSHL

[5] = biological target: T1, OCT1; experiment: Uptake in HEK293 cells overexpressing OCT1; type: in vitro ADME; details: for P, OCT1 / Vmax, OCT1 / P (non-saturable clearance parameter), OCT1 / Vmax (maximum uptake rate), OCT1 / Km: HEK293-OCT1, 0.1–1000 μM; for Vmax (maximum uptake rate), OCT1: estimate ± standard error (n = 6); for Km: read-out: Km (Michaelis-Menten constant), OCT1; for Time dependent uptake in HEK-OCT1 cells versus empty vector controls (HEK-P5): 5 μM MPP+ or 50 μM metformin, 1–30 min
[6] = biological target: T1, OCT1; experiment: Inhibition of [3H]-MPP+ uptake in HEK293 cells expressing OCT1; type: cell-based; details: 50 μM compound, 5 μM MPP+, biguanide vs parent amine
[7] = biological target: T2, OCT2; details: 50 μM compound, 5 μM MPP+, biguanide vs parent amine
[8] = cited from earlier work
[9] = 50 μM compound, 50 μM metformin

Question: For `N=C(N)NC(=N)NCCCc1ccccc1` [2c, 1-(3-Phenylpropyl)-biguanide HCl], which inhibition at 50 μM ([1]; human, HEK293 cells expressing OCT1) is on record?
Answer: The inhibition at 50 μM was no less than 50%.

Question: For `N=C(NN)Nc1ccc(C(=O)O)cc1` [2m, p-(3-Aminoguanidino)-benzoic Acid], which “Inhibition of OCT2 mediated metformin uptake” value [2, 9] is on record?
Answer: The value was “only inhibited OCT1”.

Question: What about the “Inhibition of OCT1 mediated metformin uptake” value [1, 9] of the same compound?
Answer: Its value is “inhibited”.

Question: Which results are given for `N=C(N)NC(=N)NCC(c1ccccc1)c1ccccc1` [2f, 2,2-Diphenylethyl-biguanide]?
Answer: P, OCT2 [3]: 0.6 fl/min/mg protein; Vmax, OCT2 [3]: 1.8 pmol/min/mg protein; P (non-saturable clearance parameter), OCT2 ([3]; 10 min): 0.6 ± 0.3 fL/min/mg; Vmax (maximum uptake rate), OCT2 ([3]; 10 min): 1.8 ± 0.2 pmol/mg/min; Km ([3]; 10 min): 12.4 µM and 12 µM; OCT3 substrate [4]: either none or very weak substrates; P, OCT1 [5]: 1.7 fl/min/mg protein; Vmax, OCT1 [5]: 2.0 pmol/min/mg protein; P (non-saturable clearance parameter), OCT1 ([5]; 10 min): 1.7 ± 0.2 fL/min/mg; Vmax (maximum uptake rate), OCT1 ([5]; 10 min): 2.0 ± 0.1 pmol/mg/min; Km ([5]; 10 min): 14.2 µM and 14 µM

Question: What does the source list for `[H]/N=C(/N)N/C(=N/[H])NCCc1ccccc1` [phenformin, reference compound]?
Answer: OCT2 substrate (fold uptake increase of 1.5 and greater over HEK-P5) ([3]; 100 μM, 10 min, HEK-OCT2 vs empty vector): substrates; Change of inhibition of OCT1-mediated uptake of MPP+ upon addition of the biguanide moiety [6]: increased inhibition; Change of inhibition of OCT2-mediated uptake of MPP+ upon addition of the biguanide moiety [7]: less inhibition; inhibition at 50 μM [2]: ≥ 50%; OCT1 substrate (fold uptake increase of 1.5 and greater over HEK-P5) ([5]; 100 μM, 10 min, HEK-OCT1 vs empty vector): substrates

Question: Which “Change of inhibition of OCT2-mediated uptake of MPP+ upon addition of the biguanide moiety” value [7] does the source give for `N=C(N)NC(=N)NCCc1ccc(-c2ccccc2)cc1` [2g, 2-(4-Biphenyl)ethyl-biguanide] here?
Answer: The value was “less inhibition”.

Question: For `CC(C)[C@H](N)C(=O)OCCOCn1cnc2c(=O)[nH]c(N)nc21` [valacyclovir], which Oral bioavailability [8] is on record?
Answer: Its Oral bioavailability is 50%.

Question: What does the source list for `CN(C)C(=N)N=C(N)N` [metformin, reference compound]?
Answer: Time dependent uptake in HEK-OCT2 cells versus empty vector controls (HEK-P5) [3]: higher; Time dependent uptake in HEK-OCT1 cells versus empty vector controls (HEK-P5) [5]: higher

Question: Which results are given for `N=C(N)NC(=N)NCCOc1ccccc1` [2h, 1-(2-Phenoxyethyl)-biguanide]?
Answer: Change of inhibition of OCT1-mediated uptake of MPP+ upon addition of the biguanide moiety [6]: increased inhibition; inhibition at 50 μM [2]: ≥ 50%

Question: With `C[n+]1ccc(-c2ccccc2)cc1` [MPP^+, 1-methyl-4-phenylpyridinium, reference compound] as the compound, how does the “Time dependent uptake in HEK-OCT2 cells versus empty vector controls (HEK-P5)” value [3] read?
Answer: The value was “higher”.

Question: And the “Time dependent uptake in HEK-OCT1 cells versus empty vector controls (HEK-P5)” value [5]?
Answer: The value was “higher”.

Question: Which “P, OCT2” value [3] does the source give for `Cl.N=C(N)NC(=N)NC1Cc2ccccc2C1` [2j, 2,3-Dihydro-1H-inden-2-yl-biguanide HCl] here?
Answer: Its value is 0.1 fl/min/mg protein.

Question: And the “Vmax, OCT2” value [3]?
Answer: Its value is 1.1 pmol/min/mg protein.

Question: What about the “P (non-saturable clearance parameter), OCT2” value ([3]; 10 min) of the same compound?
Answer: Its value is 0.1 ± 0.05 fL/min/mg.

Question: And the “Vmax (maximum uptake rate), OCT2” value ([3]; 10 min)?
Answer: The value was 1.1 ± 0.04 pmol/mg/min.

Question: And the Km ([3]; 10 min)?
Answer: Its Km is 31.7 µM and 32 µM.

Question: And the OCT3 substrate [4]?
Answer: The OCT3 substrate was “either none or very weak substrates”.

Question: And the “Uptake fold ratio in OCT3 cells” value ([4]; single concentration)?
Answer: The value was “significant increase”.

Question: What about the “Inhibition of metformin transport in HEK-OCT2 cells” value [2, 9] of the same compound?
Answer: The value was no less than 50%.

Question: What about the “P, OCT1” value [5] of the same compound?
Answer: Its value is 0.6 fl/min/mg protein.

Question: And the “Vmax, OCT1” value [5]?
Answer: The value was 0.3 pmol/min/mg protein.

Question: What about the “P (non-saturable clearance parameter), OCT1” value ([5]; 10 min) of the same compound?
Answer: Its value is 0.6 ± 0.08 fL/min/mg.

Question: And the “Vmax (maximum uptake rate), OCT1” value ([5]; 10 min)?
Answer: Its value is 0.3 ± 0.05 pmol/mg/min.

Question: And the Km ([5]; 10 min)?
Answer: Its Km is 16.9 µM and 17 µM.

Question: And the “Inhibition of metformin transport in HEK-OCT1 cells” value [1, 9]?
Answer: The value was no less than 50%.
